In patent publication US11970448B2, “Monomers capable of dimerizing in an aqueous solution, and methods of using same” (CORNELL UNIVERSITY, priority 2011, dated 2024):
Counter-ions that a name gives are not always drawn. Like-named read-outs stand apart in the source and are kept apart here.

Molecular target: T1, recominbant human tryptase, beta, from lung (Homo sapiens, UniProt P20231)
T1 construct: purchased Promega or Enzo Life Sciences G5631 or BML-SE418
Test: Inhibition of tryptase activity by monomers and multimers (Boc-Gln-Ala-Arg-AMC fluorescence)
Format: biochemical
Details: monomers against tryptase
Experimental: Stock solutions of recominbant human tryptase, beta, from lung (Promega: catalog number G5631, or Enzo Life Sciences: catalog number BML-SE418) were made at 30 μM, in solution with 5 μM heparin sulfate and 1 M NaCl. Monomer tryptase inhibitor stock solutions were made at 50 mM in DMSO. Test substance plates were made at 1.2× the final concentration in assay buffer (50 mM HEPES, 150 mM NaCl, 100 μM EDTA, pH 7.4, 0.02% Tween-20). A final concentration of 1 nM tryptase was used. When required, test substances were diluted in water immediately before use in 10-fold serial dilutions. After the indicated incubation time, the test subtance-tryptase solution at 1.2× concentration, was diluted into assay buffer containing a final concentration of 200 μM N-tert-butoxycarbonyl-Gln-Ala-Arg-AMC HBr [AMC=7-amino-4-methylcoumarin] (Boc-Gln-Ala-Arg-AMC; Enzo Life Sciences: catalog number BML-P237) to a final volume of 50 μl in black opaque round bottom 96 well plates (Corning, catalog number 3792). The release of fluorescent AMC was immediately measured every 30 seconds over 15-30 minutes at an excitation wavelength of 367 nm, monitoring emission at 468 nm on a Spectramax M5 (Molecular Devices) microplate reader. The Softmax Pro (Molecular Devices) and Graphpad prism software were used to determine Vmax, and concentration-response curve IC50s, respectively.

[1] = Table 5, read-out: Monomer IC50 range
[2] = read-out: IC50 range group of additional monomers (boronic acid, benzooxaborole, ligands)
[3] = entry marked (1:10), read-out: IC50 range group of additional monomers marked (1:10)

T1 sequence (P20231 31-275): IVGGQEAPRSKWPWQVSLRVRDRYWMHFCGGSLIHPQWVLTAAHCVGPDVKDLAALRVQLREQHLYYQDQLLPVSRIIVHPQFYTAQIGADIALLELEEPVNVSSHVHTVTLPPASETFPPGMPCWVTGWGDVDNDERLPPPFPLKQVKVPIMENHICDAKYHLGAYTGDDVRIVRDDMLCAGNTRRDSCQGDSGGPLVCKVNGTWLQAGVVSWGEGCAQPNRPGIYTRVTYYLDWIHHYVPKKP

Row | Compound | IC50 [1] | IC50 [2] | IC50 [3]
1 | NCc1ccc2c(c1)C1(CCN(C(=O)c3cc(O)c(O)c(Cl)c3)CC1)CO2 [T78SPIRO, (5-(aminomethyl)-2H-spiro[benzofuran-3,4′-piperidine]-1′-yl)(3-chloro-4,5-dihydroxyphenyl)methanone] | 0.0001 to 1 µM | 0.0001 to 1 µM | 
2 | CSc1sc(C(=O)N2CCC3(CC2)COc2ccc(CN)cc23)cc1-c1cccc2c1COB2O [T117SPIRO] |  | 0.0001 to 1 µM | 
3 | NCc1cccc(C2CCN(C(=O)c3cc4ccc(O)c(O)c4oc3=O)CC2)c1 [T102] | 0.0001 to 1 µM |  | 0.0001 to 1 µM
4 | COc1cc(C(=O)N2CCC3(CC2)COc2ccc(CN)cc23)cc(O)c1O [T104SPIRO] |  | 0.0001 to 1 µM | 
5 | NCc1ccc2c(c1)C1(CCN(C(=O)c3cccc(-c4cccc(B(O)O)c4F)c3)CC1)CO2 [T133SPIRO] |  | 0.0001 to 1 µM | 
6 | NCc1cccc(C2CCN(C(=O)C3CC4CCC3C(O)C4O)CC2)c1 (racemic) [T142ENDOSYN, (±) endo (4-(3 (aminomethyl)phenyl)piperidin-1-yl)(-5,6-syn-dihydroxybicyclo[2.2.2]octan-2-yl)methanone] |  | 10 to 65 µM | 
7 | NCc1cccc(C2CCN(C(=O)C3CC4CCC3C(O)C4O)CC2)c1 (racemic) [T142EXOANTI, (±) endo (4-(3 (aminomethyl)phenyl)piperidin-1-yl)(-5,6-anti-dihydroxybicyclo[2.2.2]octan-2-yl)methanone] |  | 10 to 65 µM | 
8 | NCc1ccc(F)c(C2CCN(C(=O)c3cccc4cc(O)c(O)cc34)CC2)c1 [T27F, (4-(5-(aminomethyl)-2-fluorophenyl)piperidin-1-yl)(6,7-dihydroxynaphthalen-1-yl)methanone] | 1 to 10 µM | 1 to 10 µM | 
9 | CSc1sc(C(=O)N2CCC3(CC2)COc2ccc(CN)cc23)cc1-c1cccc(B(O)O)c1 [T116SPIRO] |  |  | 0.0001 to 1 µM
10 | NCc1cccc(C2CCN(C(=O)c3cc4c(Br)cccc4s3)CC2)c1 [T56A, (4-(3-(aminomethyl)phenyl)piperidin-1-yl)(4-bromobenzo[b]thiophen-2-yl)methanone] | 0.0001 to 1 µM |  | 
11 | NCc1cccc(C2CCN(C(=O)Cc3ccc(B(O)O)cc3F)CC2)c1 [T58, 4-(2-(4-(3-(aminomethyl)phenyl)piperidin-1-yl)-2-oxoethyl)-3-fluorophenylboronic acid] | 1 to 10 µM | 1 to 10 µM | 
12 | NCc1cccc(C2CCN(C(=O)c3cccc(OCC(O)(C(=O)O)c4ccccc4)c3)CC2)c1 (stereo not drawn) [T73, 3-(3-(4-(3-(aminomethyl)phenyl)piperidine-1-carbonyl)phenoxy)-2-hydroxy-2-phenylpropanoic acid] | 0.0001 to 1 µM | 0.0001 to 1 µM | 
13 | NCc1cccc(C2CCN(C(=O)c3cc(=O)oc4c(O)c(O)ccc34)CC2)c1 [T96] |  | 1 to 10 µM | 
14 | NCc1cccc(C2CCN(C(=O)/C=C/c3ccc(O)c(O)c3)CC2)c1 [T24, (E)-1-(4-(3-(aminomethyl)phenyl)piperidin-1-yl)-3-(3,4-dihydroxyphenyl)prop-2-en-1-one hydrochloride] | 1 to 10 µM | 1 to 10 µM | 
15 | N=C(N)c1ccc2c(c1)C1(CCN(C(=O)/C=C/c3ccc(B(O)O)cc3)CC1)CO2 [T33SPAM, (E)-4-(3-(5-carbamimidoyl-2H-spiro[benzofuran-3,4′-piperidine]-1′-yl)-3-oxoprop-1-enyl)phenylboronic acid] |  | 1 to 10 µM | 
16 | NCc1cccc(C2CCN(C(=O)c3cccc(NC(=O)C4CC5CCC4C(O)C5O)c3)CC2)c1 (racemic) [T141EXOANTI, (±) exo-N-(3-(4-(3-(aminomethyl)phenyl)piperidine-1-carbonyl)phenyl)-5,6-anti-dihydroxybicyclo[2.2.2]octane-2-carboxamide.] |  | 1 to 10 µM | 
17 | CONC(=O)c1cc(C(=O)N2CCC3(CC2)COc2ccc(CN)cc23)cc(C)c1O [T114Spiro] |  | 0.0001 to 1 µM | 
18 | NCc1cccc(C2CCN(C(=O)c3cccc(-c4cccc(B(O)O)c4)c3)CC2)c1 [T35, 3′-(4-(3-(aminomethyl)phenyl)piperidine-1-carbonyl)biphenyl-3-ylboronic acid] | 0.0001 to 1 µM | 0.0001 to 1 µM | 

Row | Compound | IC50 [1] | IC50 [2] | IC50 [3]
19 | NCc1cccc(C2CCN(C(=O)c3ccc(B(O)O)c4cccnc34)CC2)c1 [T51] |  | 10 to 65 µM | 
20 | COc1cc(C(=O)N2CCC(c3cccc(CN)c3)CC2)cc(O)c1O [T104] |  | 0.0001 to 1 µM | 
21 | CONC(=O)c1cc(C(=O)N2CCC3(CC2)COc2ccc(CN)cc23)ccc1O [T92SPIRO] |  | 0.0001 to 1 µM | 
22 | NCc1cccc(C2CCN(C(=O)c3cccc(NC(=O)C4CC5CC4C(O)C5O)c3)CC2)c1 (racemic) [T139RACEENDO, (±) endo-N-(3-(4-(3-(aminomethyl)phenyl)piperidine-1-carbonyl)phenyl)-5,6-syn-dihydroxybicyclo[2.2.1]heptane-2-carboxamide] |  | 1 to 10 µM | 
23 | NCc1cccc(C2CCN(C(=O)c3cccc(OCC(=O)C4(O)CCC4)c3)CC2)c1 [T22, 2-(3-(4-(3-(aminomethyl)phenyl)piperidine-1-carbonyl)phenoxy)-1-(1-hydroxycyclobutyl)ethanone] | 0.0001 to 1 µM |  | 
24 | CONC(=O)c1ccc(CC(=O)N2CCC(c3cccc(CN)c3)CC2)cc1O [T85 Å] |  |  | 0.0001 to 1 µM
25 | CC(C)(O)c1ccc(C(=O)N2CCC(c3cccc(CN)c3)CC2)cc1O [T126] |  | 1 to 10 µM | 
26 | NCc1cccc(C2CCN(C(=O)Cc3ccc(O)c(F)c3)CC2)c1 [T54A, 1-(4-(3-(aminomethyl)phenyl)piperidin-1-yl)-2-(3-fluoro-4-hydroxyphenyl)ethanone] | 1 to 10 µM |  | 
27 | NCc1ccc2c(c1)C1(CCN(C(=O)c3cccc(-c4ccc(F)c(B(O)O)c4)c3)CC1)CO2 [T131SPIRO] |  | 0.0001 to 1 µM | 
28 | NCc1cccc(C2CCN(C(=O)Cc3cc(=O)oc4cc(O)c(O)cc34)CC2)c1 [T97, 4-(2-(4-(3-(aminomethyl)phenyl)piperidin-1-yl)-2-oxoethyl)-6,7-dihydroxy-2H-chromen-2-one] | 1 to 10 µM | 1 to 10 µM | 
29 | CC1(O)CN(c2cccc(C(=O)N3CCC(c4cccc(CN)c4)CC3)c2)CC1(C)O (stereo not drawn) [T67, (4-(3-(aminomethyl)phenyl)piperidin-1-yl)(3-(3,4-dihydroxy-3,4-dimethylpyrrolidin-1-yl)phenyl)methanone] | 0.0001 to 1 µM | 0.0001 to 1 µM | 
30 | NCc1cccc(C2CCN(C(=O)CCc3ccc(O)c(O)c3)CC2)c1 [T24Dihydro, 1-(4-(3-(aminomethyl)phenyl)piperidin-1-yl)-3-(3,4-dihydroxyphenyl)propan-1-one (TFA salt)] |  | 1 to 10 µM | 
31 | NCc1ccc2c(c1)C1(CCN(C(=O)c3ccc(O)c(C(=O)NOc4ccccc4)c3)CC1)CO2 [T92PHSPIRO] |  | 1 to 10 µM | 
32 | NCc1cccc(C2CCN(C(=O)c3cccc(O)c3O)CC2)c1 [T28, (4-(3-(aminomethyl)phenyl)piperidin-1-yl)(2,3-dihydroxyphenyl)methanone] | 1 to 10 µM | 1 to 10 µM | 
33 | NCc1cccc(C2CCN(C(=O)c3cc(O)c(O)c(O)c3)CC2)c1 [T69, (4-(3-(aminomethyl)phenyl)piperidin-1-yl)(3,4,5-trihydroxyphenyl)methanone] | 1 to 10 µM | 1 to 10 µM | 
34 | CONC(=O)c1cc(C(=O)N2CCC(c3cccc(CN)c3)CC2)ccc1O [T92, 5-(4-(3-(aminomethyl)phenyl)piperidine-1-carbonyl)-2-hydroxy-N-methoxybenzamide] | 1 to 10 µM | 1 to 10 µM | 
35 | NCc1cccc(C2CCN(C(=O)c3ccc(-c4ccc5c(c4)COB5O)cc3)CC2)c1 [T36, (4-(3-(aminomethyl)phenyl)piperidin-1-yl)(4-(1-hydroxy-1,3-dihydrobenzo[c][1,2]oxaborol-5-yl)phenyl)methanone] | 1 to 10 µM | 1 to 10 µM | 
